Structures can show the parent of a compound that is named as a salt.

hNav1.7, sequence (Q15858 other isoform, or with tags, fused parts or gaps): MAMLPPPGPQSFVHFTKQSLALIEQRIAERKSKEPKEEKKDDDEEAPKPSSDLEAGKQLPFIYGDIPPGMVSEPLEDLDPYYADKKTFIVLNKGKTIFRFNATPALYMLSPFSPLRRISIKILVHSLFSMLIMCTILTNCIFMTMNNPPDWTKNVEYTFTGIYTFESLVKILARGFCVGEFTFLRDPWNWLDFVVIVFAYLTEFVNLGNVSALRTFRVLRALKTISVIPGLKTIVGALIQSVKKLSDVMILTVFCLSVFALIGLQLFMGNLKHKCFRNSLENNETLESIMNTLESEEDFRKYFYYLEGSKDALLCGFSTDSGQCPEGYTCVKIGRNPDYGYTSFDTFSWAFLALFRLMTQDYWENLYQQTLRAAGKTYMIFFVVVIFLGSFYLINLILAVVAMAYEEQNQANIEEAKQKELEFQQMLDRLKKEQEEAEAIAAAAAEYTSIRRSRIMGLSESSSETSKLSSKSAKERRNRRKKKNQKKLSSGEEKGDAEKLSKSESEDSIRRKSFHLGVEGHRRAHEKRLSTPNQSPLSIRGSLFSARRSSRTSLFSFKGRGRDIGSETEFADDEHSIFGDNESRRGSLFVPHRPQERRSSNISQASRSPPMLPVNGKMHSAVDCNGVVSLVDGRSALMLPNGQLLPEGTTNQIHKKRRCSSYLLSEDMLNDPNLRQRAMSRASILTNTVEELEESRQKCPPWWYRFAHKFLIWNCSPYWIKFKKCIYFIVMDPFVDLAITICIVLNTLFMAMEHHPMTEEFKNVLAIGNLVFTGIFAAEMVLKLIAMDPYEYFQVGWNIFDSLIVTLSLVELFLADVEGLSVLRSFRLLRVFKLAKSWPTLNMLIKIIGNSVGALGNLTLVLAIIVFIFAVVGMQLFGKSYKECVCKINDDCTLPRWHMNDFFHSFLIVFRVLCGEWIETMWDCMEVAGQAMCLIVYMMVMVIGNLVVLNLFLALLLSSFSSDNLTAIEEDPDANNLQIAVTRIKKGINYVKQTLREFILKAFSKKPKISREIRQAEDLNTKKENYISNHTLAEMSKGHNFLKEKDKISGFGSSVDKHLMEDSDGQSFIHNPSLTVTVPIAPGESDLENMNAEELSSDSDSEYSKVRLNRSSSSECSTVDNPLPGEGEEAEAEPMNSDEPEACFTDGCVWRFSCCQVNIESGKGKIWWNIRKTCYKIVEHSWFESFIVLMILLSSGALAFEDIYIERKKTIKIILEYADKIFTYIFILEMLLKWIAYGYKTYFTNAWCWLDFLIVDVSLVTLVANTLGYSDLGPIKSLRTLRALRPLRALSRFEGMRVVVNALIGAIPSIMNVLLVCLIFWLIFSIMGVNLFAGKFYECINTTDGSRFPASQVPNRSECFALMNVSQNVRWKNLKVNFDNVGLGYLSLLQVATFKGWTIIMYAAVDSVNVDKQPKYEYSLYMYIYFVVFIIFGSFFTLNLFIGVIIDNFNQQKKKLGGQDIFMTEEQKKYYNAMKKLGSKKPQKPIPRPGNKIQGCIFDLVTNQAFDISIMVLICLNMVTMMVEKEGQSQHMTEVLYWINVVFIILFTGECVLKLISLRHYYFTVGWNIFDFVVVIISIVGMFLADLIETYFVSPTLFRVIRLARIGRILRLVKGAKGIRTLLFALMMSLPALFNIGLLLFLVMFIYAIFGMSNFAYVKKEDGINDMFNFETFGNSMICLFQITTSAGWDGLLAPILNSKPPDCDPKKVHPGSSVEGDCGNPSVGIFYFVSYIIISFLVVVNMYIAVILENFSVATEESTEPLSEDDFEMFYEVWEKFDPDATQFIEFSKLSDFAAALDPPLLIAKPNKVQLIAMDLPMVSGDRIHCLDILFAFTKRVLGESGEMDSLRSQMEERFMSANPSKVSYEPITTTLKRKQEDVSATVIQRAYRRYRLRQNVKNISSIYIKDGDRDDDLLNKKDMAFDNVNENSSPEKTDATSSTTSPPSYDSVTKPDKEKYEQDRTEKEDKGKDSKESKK
hNav1.7, sequence (Q07699 19-218 partner): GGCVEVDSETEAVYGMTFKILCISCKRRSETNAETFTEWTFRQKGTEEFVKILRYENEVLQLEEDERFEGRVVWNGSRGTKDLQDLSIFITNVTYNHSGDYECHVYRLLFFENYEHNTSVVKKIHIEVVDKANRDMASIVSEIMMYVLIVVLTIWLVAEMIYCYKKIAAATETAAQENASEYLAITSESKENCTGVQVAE

The first assay has as its target hNav1.7 (Homo sapiens (Human), UniProt Q15858). Put plainly: Tritiated sulfonamide competitive binding to membranes from cells expressing hNav1.7 and the β1 subunit.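 Also: Filter-bound radioactivity counted by liquid scintillation, nonspecific binding defined with excess unlabelled ligand, IC50 fitted to percent inhibition of specific binding.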
Conditions: not given
`C[C@@H](c1cc(Cl)cc(Cl)c1)N1C[C@@H]2C[C@H]1CN2Cc1cc(F)c(C(=O)NS(=O)(=O)C2CC2)cc1C1CC1` [Example 564, 5-cyclopropyl-N-(cyclopropylsulfonyl)-4-(((1S,4S)-5-((S)-1-(3,5-dichlorophenyl)ethyl)-2,5-diazabicyclo[2.2.1]heptan-2-yl)methyl)-2-fluorobenzamide, trifluoroacetic acid salt] gave an IC50 of 3.6 nM.

Compound `O=C(NS(=O)(=O)C1CC1)c1cc(C2CC2)c(O[C@@H]2CCCN(Cc3ccc(F)cc3)C2)cc1F` [Example 21, (R)-5-cyclopropyl-N-(cyclopropylsulfonyl)-2-fluoro-4-((1-(4-fluorobenzyl)piperidin-3-yl)oxy)benzamide] came in with an IC50 of 11.2 nM.

`CC(C)(c1cccc(Cl)c1)N1CCC[C@@H](Oc2cc(F)c(C(=O)NS(=O)(=O)C3CC3)cc2C2CC2)C1` [Example 530, (R)-4-((1-(2-(3-chlorophenyl)propan-2-yl)piperidin-3-yl)oxy)-5-cyclopropyl-N-(cyclopropylsulfonyl)-2-fluorobenzamide, trifluoroacetic acid salt] displayed an IC50 of 2.3 nM.

Consider `O=C(NS(=O)(=O)N1CCC1)c1cc(C2CC2)c(O[C@@H]2CCCN(Cc3ccc(F)cc3F)C2)cc1F` [Example 8, (R)—N-(azetidin-1-ylsulfonyl)-5-cyclopropyl-4-((1-(2,4-difluorobenzyl)-piperidin-3-yl)oxy)-2-fluorobenzamide], for which the IC50 is 8.1 nM.

Compound `C[C@H](c1cc(Cl)cc(Cl)c1)N1CCC[C@@H](Oc2cc(F)c(C(=O)NS(C)(=O)=O)cc2C2CC2)C1` (single isomer, unassigned) [Example 51] displayed an IC50 of 2.1 nM.

Staying with this assay, now noted: read-out: Ligand Binding Assay; 100 pM [3H]compound, membranes with hNav1.7 and β1 subunit, 18 h, room temperature.
As to `Cc1cc(F)ccc1CN1CCC[C@@H](Oc2cc(F)c(C(=O)NS(C)(=O)=O)cc2C2CC2)C1` [Example 431, (R)-5-cyclopropyl-2-fluoro-4-((1-(4-fluoro-2-methylbenzyl)piperidin-3-yl)oxy)-N-(methylsulfonyl)benzamide, trifluoroacetic acid salt], the IC50 amounted to 3.2 nM.

As to `CCS(=O)(=O)NC(=O)c1cc(C2CC2)c(OCC2CCN([C@@H](C)c3ccc(F)cc3Cl)CC2)cc1F` (single isomer, unassigned) [Example 245], the IC50 worked out at 7.9 nM.

As for `C[C@H]1CC[C@@H](Oc2cc(F)c(C(=O)NS(=O)(=O)C3CC3)cc2C2CC2)CN1Cc1ccc(F)cc1Cl` [Example 326, 4-(((3R,6S)-1-(2-chloro-4-fluorobenzyl)-6-methylpiperidin-3-yl)oxy)-5-cyclopropyl-N-(cyclopropylsulfonyl)-2-fluorobenzamide], the IC50 amounted to 2.9 nM.

Regarding `COC[C@H](c1ccc(F)c(Cl)c1)N1CCC(COc2cc(F)c(C(=O)NS(C)(=O)=O)cc2C2CC2)CC1` (single isomer, unassigned) [Example 182], the IC50 came to 14 nM.

For the compound `COC[C@](C)(c1cc(Cl)cc(Cl)c1)N1CCC(COc2cc(F)c(C(=O)NS(C)(=O)=O)cc2C2CC2)CC1` (single isomer, unassigned) [Example 202], the IC50 was 1.6 nM.

In the case of `CS(=O)(=O)NC(=O)c1cc(C2CC2)c(OCC2CCN([C@@H]3c4ccccc4C[C@H]3O)CC2)cc1F` [Example 200, 5-Cyclopropyl-2-fluoro-4-((1-((1R,2R)-2-hydroxy-2,3-dihydro-1H-inden-1-yl)piperidin-4-yl)methoxy)-N-(methylsulfonyl)benzamide], the IC50 came out at 9400 nM.

For the compound `CC1(COc2cc(F)c(C(=O)NS(C)(=O)=O)cc2C2CC2)CN(C(c2ccccc2)c2cc(Cl)cc(Cl)c2)C1` (stereo not drawn) [Example 420, 5-cyclopropyl-4-((1-((3,5-dichlorophenyl)(phenyl)methyl)-3-methylazetidin-3-yl)methoxy)-2-fluoro-N-(methylsulfonyl)benzamide, trifluoroacetic acid salt], the IC50 came to 2.4 nM.

Regarding `CCS(=O)(=O)NC(=O)c1cc(C2CC2)c(OCCC2CCN(Cc3cc(Cl)cc(Cl)c3)CC2)cc1F` [Example 303, 5-cyclopropyl-4-(2-(1-(3,5-dichlorobenzyl)piperidin-4-yl)ethoxy)-N-(ethylsulfonyl)-2-fluorobenzamide, trifluoroacetic acid salt], the IC50 amounted to 6.5 nM.

Turning to `CCS(=O)(=O)NC(=O)c1cc(C2CC2)c(OCC2CCN(Cc3cc(C(F)(F)F)cc(C4CC4)n3)CC2)cc1F` [Example 307, 5-cyclopropyl-4-((1-((6-cyclopropyl-4-(trifluoromethyl)pyridin-2-yl)methyl)piperidin-4-yl)methoxy)-N-(ethylsulfonyl)-2-fluorobenzamide], the IC50 amounted to 6.7 nM.

For the compound `C[C@H](c1cc(Cl)cc(Cl)c1)N1CCC(COc2cc(F)c(C(=O)NS(=O)(=O)N3CCC3)cc2C2CC2)CC1` (single isomer, unassigned) [Example 271], the IC50 is 3.7 nM.

Regarding `CS(=O)(=O)NC(=O)c1cc(C2CC2)c(OCC2CCN(Cc3cc(Cl)cc(Cl)c3F)CC2)cc1F` [Example 242, 5-Cyclopropyl-4-((1-(3,5-dichloro-2-fluorobenzyl)piperidin-4-yl)methoxy)-2-fluoro-N-(methylsulfonyl)benzamide], the IC50 was 3 nM.

Take `CS(=O)(=O)NC(=O)c1cc(C2CC2)c(OCC2CCN(Cc3ccccc3C#N)CC2)cc1F` [Example 149, 4-((1-(2-Cyanobenzyl)piperidin-4-yl)methoxy)-5-cyclopropyl-2-fluoro-N-(methylsulfonyl)benzamide]: the IC50 is 73.7 nM.

On to `C[C@@H](c1ccc(OC(F)(F)F)cc1)N1CCC(C)(COc2cc(F)c(C(=O)NS(C)(=O)=O)cc2C2CC2)CC1` (single isomer, unassigned) [Example 248], for which the IC50 amounted to 10 nM.

Regarding `Cc1cc(F)ccc1S(=O)(=O)N1CCC(COc2cc(F)c(C(=O)NS(=O)(=O)C3CC3)cc2C2CC2)CC1` [Example 387, 5-cyclopropyl-N-(cyclopropylsulfonyl)-2-fluoro-4-((1-((4-fluoro-2-methylphenyl)sulfonyl)piperidin-4-yl)methoxy)benzamide], the IC50 came out at 13.3 nM.

Regarding `C[C@@H](c1ccc(F)cc1Cl)N1CCC(COc2cc(F)c(C(=O)NS(C)(=O)=O)cc2C2CC2)CC1` [Example 243], the IC50 came out at 11 nM.

As to `CS(=O)(=O)N1CCC(COc2cc(F)c(C(=O)NS(=O)(=O)C3CC3)cc2C2CC2)CC1` [Example 394, 5-cyclopropyl-N-(cyclopropylsulfonyl)-2-fluoro-4-((1-(methylsulfonyl)piperidin-4-yl)methoxy)benzamide], the IC50 is 6010 nM.

In the case of `CS(=O)(=O)NC(=O)c1cc(C2CC2)c(OCC2CCN([C@@H](CO)c3cc(Cl)cc(Cl)c3)CC2)cc1F` [Example 266], the IC50 stood at 91 nM.

On to `CCS(=O)(=O)NC(=O)c1cc(C2CC2)c(OCC2CCN([C@@](C)(COC)c3cc(Cl)cc(Cl)c3)CC2)cc1F` (single isomer, unassigned) [Example 204], for which the IC50 turned out to be 2.7 nM.

In the case of `CS(=O)(=O)NC(=O)c1cc(C2CC2)c(OCC2CCN(C(c3cc(Cl)cc(Cl)c3)C(F)F)CC2)cc1F` (stereo in doubt) [Example 225, (S)-5-cyclopropyl-4-((1-(1-(3,5-dichlorophenyl)-2,2-difluoroethyl)piperidin-4-yl)methoxy)-2-fluoro-N-(methylsulfonyl)benzamide], the IC50 came to 17 nM.

Turning to `CCS(=O)(=O)NC(=O)c1cc(C2CC2)c(OC[C@@H]2CC[C@@H](C)N([C@@H](C)c3cc(Cl)cc(Cl)c3)C2)cc1F` [Example 344, trifluoroacetic acid salt], the IC50 was found to be 6.9 nM.

As for `O=C(NS(=O)(=O)C1CC1)c1cc(C2CC2)c(O[C@@H]2CCCN(Cc3cc(Cl)cc(Cl)c3)C2)cc1F` [Example 3, (R)-5-cyclopropyl-N-(cyclopropylsulfonyl)-4-((1-(3,5-dichlorobenzyl)piperidin-3-yl)oxy)-2-fluorobenzamide], the IC50 amounted to 2.6 nM.

Regarding `CS(=O)(=O)NC(=O)c1cc(C2CC2)c(O[C@@H]2CCCN(Cc3ccc(S(C)(=O)=O)cc3Cl)C2)cc1F` [Example 441, (R)-4-((1-(2-chloro-4-(methylsulfonyl)benzyl)piperidin-3-yl)oxy)-5-cyclopropyl-2-fluoro-N-(methylsulfonyl)benzamide, trifluoroacetic acid salt], the IC50 came to 138 nM.

Take “5-cyclopropyl-2-fluoro-N-(methylsulfonyl)-4-((1-(6-(trifluoromethyl)pyridin-2-yl)piperidin-4-yl)methoxy)benzamide [Example 592]”: the IC50 was 5.4 nM.

Consider `COC[C@@](C)(c1cc(Cl)cc(Cl)c1)N1CCC(COc2cc(F)c(C(=O)NS(C)(=O)=O)cc2C2CC2)CC1` (single isomer, unassigned) [Example 201], for which the IC50 turned out to be 5 nM.

As to `CS(=O)(=O)NC(=O)c1cc(C2CC2)c(OC[C@H]2CCCN(Cc3ccc(F)cc3Cl)C2)cc1F` [Example 335, (S)-4-((1-(2-chloro-4-fluorobenzyl)piperidin-3-yl)methoxy)-5-cyclopropyl-2-fluoro-N-(methylsulfonyl)benzamide], the IC50 stood at 14.3 nM.

On to `COC[C@H](c1ccc(F)c(C(F)(F)F)c1)N1CCC(COc2cc(F)c(C(=O)NS(C)(=O)=O)cc2C2CC2)CC1` (single isomer, unassigned) [Example 188], for which the IC50 stood at 5.2 nM.

As for `CS(=O)(=O)NC(=O)c1cc(C2CC2)c(OCC2CCN(Cc3cc(F)c(Cl)cc3Cl)CC2)cc1F` [Example 453, 5-cyclopropyl-4-((1-(2,4-dichloro-5-fluorobenzyl)piperidin-4-yl)methoxy)-2-fluoro-N-(methylsulfonyl)benzamide, trifluoroacetic acid salt], the IC50 was 3 nM.

Still in this assay, the particulars now being: read-out: Ligand Binding Assay; 100 pM [3H]compound, membranes with hNav1.7 and β1 subunit, 18 h, room temperature; trifluoroacetic acid salt.
Regarding `CS(=O)(=O)NC(=O)c1cc(C2CC2)c(CN2[C@@H]3CC[C@H]2C[C@@H](Oc2ncc(C(F)(F)F)cc2Cl)C3)cc1F` [Example 553, 4-(((1R,3r,5S)-3-((3-chloro-5-(trifluoromethyl)pyridin-2-yl)oxy)-8-azabicyclo[3.2.1]octan-8-yl)methyl)-5-cyclopropyl-2-fluoro-N-(methylsulfonyl)benzamide, trifluoroacetic acid salt], the IC50 was determined as 6.1 nM.

Source of the values: patent publication US9546164B2 (GENENTECH, INC., priority 2013, dated 2017).
